Legend:
[1] = target: T1, recombinant human EP4 receptor membrane protein (Homo sapiens, UniProt P35408); assay: Radioligand binding assay for EP4 receptor ([3H]-PGE2); conditions: [3H]-PGE2 1.5 nM; membrane protein 20 μg/well
T1 construct: expressed in transfected cells; host or cells: membranes of 293 cells overexpressing human EP4 receptor
Protocol: The compounds to be tested and PGE2 were formulated as 10 mM stocks in a DMSO solvent, and then 8 concentration points of 4× working solution were serially diluted using a buffer (50 mM HBSS, 0.1% BSA, 500 mM NaCl). […] Unifilter-96 GF/C filter plate (Perkin Elmer) was soaked with 0.5% BSA, 50 μL per well, for at least 30 min at room temperature. After binding was complete, the reaction mixture was harvested through a GF/C plate using a Perkin Elmer Filtermate Harvester, followed by washing the filter plate and drying the filter plate for 1 hour at 50° C. After drying, the bottom of the filter plate wells was sealed using a Perkin Elmer Unifilter-96 sealing tape, and 50 μL of MicroScint™-20 cocktail (Perkin Elmer) was added to seal the top of the filter plate. The ^3H counts captured on the filter were read using a Perkin Elmer MicroBeta2 Reader.
The IC50 and Ki values of the compounds determined by the radioligand binding assay for EP4 receptor were calculated based on the inhibition rate of the different concentrations of the compounds.

human EP4 receptor [2] = target: T2, human EP4 receptor (Homo sapiens, UniProt P35408); assay: Assay of calcium current inhibition on EP4 receptor (FLIPR, 293 cells); type: cell-based; design: expressed in transfected cells; host or cells: 293 cells; conditions: for IC50: 293 cells overexpressing human EP4, PGE2 at EC80, FLIPR
T2 sequence (P35408 whole entry): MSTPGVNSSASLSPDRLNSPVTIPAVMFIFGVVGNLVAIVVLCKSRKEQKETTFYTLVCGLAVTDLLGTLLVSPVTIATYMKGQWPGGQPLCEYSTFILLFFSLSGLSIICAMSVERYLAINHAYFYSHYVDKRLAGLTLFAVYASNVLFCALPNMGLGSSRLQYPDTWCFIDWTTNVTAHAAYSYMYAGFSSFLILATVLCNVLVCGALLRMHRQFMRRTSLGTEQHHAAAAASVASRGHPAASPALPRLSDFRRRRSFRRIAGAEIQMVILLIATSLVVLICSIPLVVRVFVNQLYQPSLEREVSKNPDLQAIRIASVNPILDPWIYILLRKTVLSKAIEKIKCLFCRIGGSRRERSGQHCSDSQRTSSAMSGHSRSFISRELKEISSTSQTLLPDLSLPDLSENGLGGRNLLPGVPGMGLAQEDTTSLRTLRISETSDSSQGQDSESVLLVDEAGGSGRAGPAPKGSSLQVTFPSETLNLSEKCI
Protocol: The cells were rapidly thawed in a 37° C. water bath, centrifuged, resuspended, and counted. The cell suspensions were seeded at 20 μL/well in two 384-well plates (20,000 cells/well) and placed in an incubator (a 37° C., 5% CO2) overnight. Preparation of a 2× Fluo-4 Direct™ (Invitrogen, Cat #F10471) loading buffer: 77 mg of probenecid was added to 1 mL of a FLIPR buffer, with a concentration of 250 mM. 10 mL of FLIPR buffer and 0.2 mL of probenecid (250 mM) were added to each tube of Fluo-4 Direct™ crystals (F10471).
One of the cell plates was taken out of the incubator and the medium was removed. 20 μL of an assay buffer and 2× Fluo-4 Direct™ non-wash loading buffer were added to the 384-well cell culture plate to a final volume of 40 μL, and then the culture plate was incubated in an incubator (a 37° C., 5% CO2) for 50 minutes, and then at room temperature for 10 minutes, and then the plate was placed in the FLIPR. 10 μL of the buffer was transferred to the cell plate and the fluorescence signal was read. The agonist PGE2 was formulated as a 10 mM stock in a DMSO solvent and 10 concentration points of the 6× working solution were serially diluted using the buffer. 10 μL of the agonist PGE2 was transferred to the cell plate, the fluorescence signal was read to calculate EC80 value.
The agonist PGE2 was prepared at 6× EC80 concentration and the compound to be tested was formulated as a 10 mM stock solution in the DMSO solvent and 10 concentration points of the 6× compound working solution was serially diluted using the buffer.
Another cell plate was taken to remove media and 20 μL of the assay buffer and 2× Fluo-4 Direct™ non-wash loading buffer were added; the cell plate was incubated in a 37° C., 5% CO2 incubator for 50 minutes and room temperature for 10 minutes and then placed in the FLIPR. 10 μL of the compound working solution, DMSO, and the EP4 full antagonist were transferred to the cell plate and the fluorescence signal was read. […] Inhibition (%)=100−(test group−EP4 full antagonist group)/(DMSO group−EP4 full antagonist group)*100
Compound's IC50 value of EP4 calcium current inhibition was calculated based on the inhibition rate at different concentrations of the compound.

human EP4 receptor [3] = target: T2, human EP4 receptor; assay: Assay for EP4 antagonistic effect (cAMP, PGE2-stimulated CHO stable cell line)
Protocol: After trypsinization, cells were resuspended in a buffer (1×HBSS, 0.1% BSA, 20 mM HEPES, and 500 μM IBMX) and 8000 cells were seeded per well in 384-well plates in a seeding volume of 15 μL. A working solution the compound with a 8× concentration was prepared with an experimental buffer, and then 2.5 μL of the working solution of the compound with 8× concentration was added to the 384-well plate, respectively, and incubated at 37° C. for 30 min. An agonist PGE2 working solution with 8× concentration of (4 nM) was prepared with the experimental buffer and 2.5 μL per well was added to the 384-well plate (the final PGE2 concentration was 0.5 nM) and incubated at 37° C. for 30 min. After the reaction was completed, the amount of cAMP in the cells was quantified according to the method in the instructions of the cAMP test kit (Perkin Elmer, Cat #TRF0263). The antagonistic effects (IC50 value) were calculated for the test compounds.

[4] = Rat pharmacokinetic assay; type: in vivo, male SD rats; conditions: male, SD, plasma, rat, intravenous administration 1 mg/kg
Protocol: (§1) In a mouse pharmacokinetic assay, male ICR mice (20 g to 25 g) were selected and fasted overnight. Three mice were selected and intragastrically administered with 5 mg/kg of the corresponding compound. The blood of the mice was collected before the administration and at 15 min, 30 min, 1 h, 2 h, 4 h, 8 h, 24 h after the administration. Another 3 mice were intravenously administered with 1 mg/kg of the corresponding compound, and the blood thereof was collected before the administration and at 15 min, 30 min, 1 h, 2 h, 4 h, 8 h, 24 h after the administration. The blood samples were centrifuged at 6800 g at 2° C. to 8° C. for 6 minutes, and plasma was collected and stored at −80° C. The plasma was taken at respective time point, mixed with 3-5 times the amount of acetonitrile containing internal standard, vortexed for 1 minute, centrifuged at 4° C. for 10 minutes at 13000 rpm, supernatant was added 3 times the amount of water, and the appropriate mixture was taken for LC-MS/MS analysis. The primary pharmacokinetic parameters were analyzed with a WinNonlin 7.0 software, with non-compartmental model.
In a rat pharmacokinetic assay, male SD rats (180 g to 240 g) were selected and fasted overnight. Three rats were intragastrically administered with 5 mg/kg of the corresponding compound. Another 3 rats were intravenously administered with 1 mg/kg of the corresponding compound. The following operations were the same as the mouse pharmacokinetic assay.

[5] = Mouse pharmacokinetic assay; type: in vivo, male ICR mice; conditions: male, ICR, plasma, oral gavage administration 5 mg/kg
Protocol: as §1

T1 sequence (P35408 whole entry): as above

Structure (SMILES) | IC50 [1] | Ki [1] | IC50 (human EP4 receptor [2]) | other results
CC(O)c1cc(Oc2c(C(=O)N[C@@H](C)c3ccc(C(=O)O)cc3)c(C(F)F)nn2C)ccc1F (stereo partly drawn) [Compound I-23, 4-((1S)-1-(3-(difluoromethyl)-5-(4-fluoro-3-(1-hydroxyethyl)phenoxy)-1-methyl-1H-pyrazole-4-carboxamido)ethyl)benzoic Acid] | 13 nM | 7 nM | – | –
CC(F)c1cccc(Oc2c(C(=O)N[C@@H](C)c3ccc(C(=O)O)cc3)c(C(F)F)nn2C)c1 (stereo partly drawn) [Compound I-13, 4-((1S)-1-(3-(difluoromethyl)-5-(3-(1-fluoroethyl)phenoxy)-1-methyl-1H-pyrazole-4-carboxamido)ethyl)benzoic Acid] | – | – | 10 nM | –
CCc1cc(F)cc(Oc2c(C(=O)N[C@@H](C)c3ccc(C(=O)O)cc3)c(C(F)F)nn2C)c1 [Compound I-12, (S)-4-(1-(3-(difluoromethyl)-5-(3-ethyl-5-fluorophenoxy)-1-methyl-1H-pyrazole-4-carboxamido)ethyl)benzoic Acid] | – | – | 19 nM | –
Cc1cc(Oc2c(C(=O)N[C@@H](C)c3ccc(C(=O)O)cc3)c(C(F)F)nn2C)cs1 [Compound I-41, (S)-4-(1-(3-(difluoromethyl)-1-methyl-5-((5-methylthiophen-3-yl)oxy)-1H-pyrazole-4-carboxamido)ethyl)benzoic Acid] | – | – | 16 nM | –
C[C@H](NC(=O)c1c(C(F)F)nn(C)c1Oc1ccc(F)c(C(C)(F)F)c1)c1ccc(C(=O)O)cc1 [Compound I-10, (S)-4-(1-(5-(3-(1,1-difluoroethyl)-4-fluorophenoxy)-3-(difluoromethyl)-1-methyl-1H-pyrazole-4-carboxamido)ethyl)benzoic Acid] | 4 nM | 2.2 nM | 14 nM | –
CCc1cc(Oc2c(C(=O)N[C@@H](C)c3ccc(C(=O)O)cc3)c(C(F)F)nn2C)ccc1C [Compound I-17, (S)-4-(1-(3-(difluoromethyl)-5-(3-ethyl-4-methylphenoxy)-1-methyl-1H-pyrazole-4-carboxamido)ethyl)benzoic Acid] | – | – | 18 nM | –
C[C@H](NC(=O)c1c(C(F)F)nn(C)c1Oc1cccc(S(F)(F)(F)(F)F)c1)c1ccc(C(=O)O)cc1 [Compound I-28, (S)-4-(1-(3-(difluoromethyl)-1-methyl-5-(3-(pentafluoro-λ^6-sulfanyl)phenoxy)-1H-pyrazole-4-carboxamido)ethyl)benzoic Acid] | – | – | 8 nM | IC50 (human EP4 receptor [3]): 5.7 nM
C[C@H](NC(=O)c1c(C(F)F)nn(C)c1Oc1ccc(-c2ccccc2)cc1)c1ccc(C(=O)O)cc1 [Compound I-26, (S)-4-(1-(5-([1,1′-biphenyl]-4-yloxy)-3-(difluoromethyl)-1-methyl-1H-pyrazole-4-carboxamido)ethyl)benzoic Acid] | – | – | 8.5 nM | –
C[C@H](NC(=O)c1c(C(F)F)nn(C)c1Oc1cccc(OCC(F)(F)F)c1)c1ccc(C(=O)O)cc1 [Compound I-33, (S)-4-(1-(3-(difluoromethyl)-1-methyl-5-(3-(2,2,2-trifluoroethoxy)phenoxy)-1H-pyrazole-4-carboxamido)ethyl)benzoic Acid] | 31 nM | 17 nM | 12 nM | AUC(0-t) [4]: 4670 ng·h/mL; clearance [4]: 3.67 mL/min/kg; half-life [4]: 9.02 h; Vd ([4]; read-out: Vz): 2.72 L/kg; AUC(0-t) [5]: 8290 ng·h/mL; Cmax [5]: 2530 ng/mL; Tmax [5]: 0.33 h; half-life [5]: 8.22 h
Cc1nn(C)c(Oc2cccc(C(C)(F)F)c2)c1C(=O)N[C@@H](C)c1ccc(C(=O)O)cc1 [Compound I-8, (S)-4-(1-(5-(3-(1,1-difluoroethyl)phenoxy)-1,3-dimethyl-1H-pyrazole-4-carboxamido)ethyl)benzoic Acid] | – | – | 16.5 nM | –
CC(C)c1cccc(Oc2c(C(=O)N[C@@H](C)c3ccc(C(=O)O)cc3)c(C(F)F)nn2C)c1 [Compound I-4, (S)-4-(1-(3-(difluoromethyl)-5-(3-isopropylphenoxy)-1-methyl-1H-pyrazole-4-carboxamido)ethyl)benzoic Acid] | 7.4 nM | 4 nM | 4 nM | increase of inhibition effect on the calcium current of EP4 compared with the control compound (human EP4 receptor [2]; compared with the control compound): more than 5 time
CCc1cc(Oc2c(C(=O)N[C@@H](C)c3ccc(C(=O)O)cc3)c(C(F)F)nn2C)ccc1Cl [Compound I-11, (S)-4-(1-(5-(4-chloro-3-ethylphenoxy)-3-(difluoromethyl)-1-methyl-1H-pyrazole-4-carboxamido)ethyl)benzoic Acid] | 6.8 nM | 3.7 nM | 8 nM | –
CC(c1cccc(Oc2c(C(=O)N[C@@H](C)c3ccc(C(=O)O)cc3)c(C(F)F)nn2C)c1)C(F)(F)F (stereo partly drawn) [Compound I-15, 4-((1S)-1-(3-(difluoromethyl)-1-methyl-5-(3-(1,1,1-trifluoropropan-2-yl)phenoxy)-1H-pyrazole-4-carboxamido)ethyl)benzoic Acid] | 12 nM | 6.6 nM | 18 nM | –
C[C@H](NC(=O)c1c(C(F)F)nn(C)c1Oc1cccc(C2CC2)c1)c1ccc(C(=O)O)cc1 [Compound I-3, (S)-4-(1-(5-(3-cyclopropylphenoxy)-3-(difluoromethyl)-1-methyl-1H-pyrazole-4-carboxamido)ethyl)benzoic Acid] | 9 nM | 4.9 nM | 3 nM | IC50 (human EP4 receptor [3]): 2.8 nM
CSc1cccc(Oc2c(C(=O)N[C@@H](C)c3ccc(C(=O)O)cc3)c(C(F)F)nn2C)c1 [Compound I-30, (S)-4-(1-(3-(difluoromethyl)-1-methyl-5-(3-(methylthio)phenoxy)-1H-pyrazole-4-carboxamido)ethyl)benzoic Acid] | 12 nM | 6.6 nM | 15 nM | IC50 (human EP4 receptor [3]): 12 nM
C[C@H](NC(=O)c1c(C(F)F)nn(C)c1Oc1cccc(SC(F)(F)F)c1)c1ccc(C(=O)O)cc1 [Compound I-29, (S)-4-(1-(3-(difluoromethyl)-1-methyl-5-(3-((trifluoromethyl)thio)phenoxy)-1H-pyrazole-4-carboxamido)ethyl)benzoic Acid] | – | – | – | IC50 (human EP4 receptor [3]): 14 nM
CCc1cccc(Oc2c(C(=O)N[C@@H](C)c3ccc(C(=O)O)cc3)c(C)nn2C)c1 [Compound I-9, (S)-4-(1-(5-(3-ethylphenoxy)-1,3-dimethyl-1H-pyrazole-4-carboxamido)ethyl) benzoic Acid] | – | – | – | IC50 (human EP4 receptor [3]): 29 nM

Source: patent US12643889B2, “Synthesis of novel EP4 antagonist and use in cancer and inflammation” (Wuhan Humanwell Innovative Drug Research And Development …, priority 2020, dated 2026)
